Results as given in PMC5655428, “Discovery and pharmacological characterization of a new class of prolyl-tRNA synthetase inhibitor for anti-fibrosis therapy” (PLoS ONE, 2017).

Legend:
[1] = target: T1, human PRS (Homo sapiens, UniProt P07814); experiment: ATP/PPi exchange assay (PRS enzymatic inhibition); type: biochemical; conditions: ATP/PPi exchange method; duplicate
T1 construct: His-Avi-tag (N); made in house; host or cells: E. coli BL21 (DE3)
T1 sequence (P07814 998-1512): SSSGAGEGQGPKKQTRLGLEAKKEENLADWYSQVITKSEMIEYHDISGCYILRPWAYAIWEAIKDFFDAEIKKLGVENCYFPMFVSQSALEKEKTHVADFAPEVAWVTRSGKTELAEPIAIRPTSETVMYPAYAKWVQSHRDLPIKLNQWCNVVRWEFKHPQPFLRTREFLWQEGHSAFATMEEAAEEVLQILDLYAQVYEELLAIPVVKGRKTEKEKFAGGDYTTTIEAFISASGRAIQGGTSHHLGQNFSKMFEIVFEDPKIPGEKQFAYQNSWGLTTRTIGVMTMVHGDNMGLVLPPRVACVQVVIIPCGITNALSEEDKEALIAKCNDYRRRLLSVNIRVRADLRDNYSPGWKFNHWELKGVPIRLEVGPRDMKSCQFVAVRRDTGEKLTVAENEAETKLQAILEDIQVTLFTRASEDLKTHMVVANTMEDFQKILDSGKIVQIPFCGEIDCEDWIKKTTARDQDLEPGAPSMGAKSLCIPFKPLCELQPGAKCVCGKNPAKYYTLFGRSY
Procedure: The expression plasmid of human PRS (residues 998–1512, Genbank Accession No. NM_152621) was constructed in a pET21a vector (Novagen, San Diego, CA, USA) to express in E.coli BL21 (DE3) (Nippongene, Tokyo, Japan) as a fusion protein with His-Avi-tag at N-terminus. After culture, the cells were homogenized in a lysis buffer containing 50 mM Tris-HCl (pH 8.0 at 25°C), 150 mM NaCl, 5 U/mL Benzonase, 20 mM imidazole, and 1 mM DTT. Cell homogenates were centrifuged, and the supernatant was applied to NiNTA purification, followed by gel filtration with Superdex200. Proteins were stored in a buffer containing 50 mM Tris-HCl (pH 8.0 at 25°C), 150 mM NaCl, 10% glycerol, and 1 mM DTT at -80°C. The protein concentration was determined with the BCA Protein Assay Kit (Pierce Biotechnology, Inc., Rockford, IL, USA) according to the instruction manual.
The test compounds were dissolved in 5 μL of an assay buffer [50 mM Tris-HCl (pH 7.5), 20 mM KCl, 1 mM DTT, and 0.01% Tween 20] and incubated with 5 μL of 40 nM PRS enzyme dissolved in the assay buffer supplemented with 40 mM MgCl2 for 60 minutes. […] Radioactivities were measured using the TopCount detector (PerkinElmer).
The inhibitory activity was calculated as follows: % inhibition = (A—B) / (A—C) × 100, where, A, B, and C are signals with vehicle, test sample, and without reaction, respectively. […]

[2] = tested on: skin fibroblasts; experiment: Proline addition assay (α-SMA mRNA); type: cell-based, human; conditions: proline 0.05, 0.2 and 1 mM; compound 1-300 nM; 24 h
Procedure: Total RNA was isolated from in vivo samples using ISOGEN II (Nippongene) according to the manufacturer's instructions. In vitro RNA samples were prepared as mentioned above. High Capacity cDNA Reverse Transcription Kit (Life Technologies, Carlsbad, CA, USA) was used for cDNA synthesis. Real-time quantitative RT-PCR reactions were performed as a TaqMan method on a ViiA 7 real-Time PCR System (Life Technologies), using TaqMan Fast Advanced Master Mix (Lifer Technologies) with specific primers on TaqMan Gene Expression Assays (Life Technologies) according to the manufacturer's manual. […] The relative mRNA level of the target genes was calculated by the comparative threshold cycle (Ct) method using GAPDH (Gapdh) as an internal control for normalization. The fold change in the expression of each target gene was calculated by the following formula: relative quantification (RQ) = 2^-ΔΔCt.
To evaluate the effect of proline addition on anti-fibrosis by each compound, the cells were allowed to adhere overnight before being replaced with serum-free FBM for 24 h. […] Then real-time quantitative RT-PCR analysis was conducted as mentioned above.

[3] = target: 27 kinases; experiment: kinase panel experiment; type: biochemical; conditions: almost no inhibitory activity, read-out: IC50 against 27 kinases
[4] = mouse, in vivo
Procedure: The experimenters were blinded to the treatments given to the animals and to the biochemical and histological analyses and the data analyses. Eight-week-old C3H/He male mice (weighing 23~28 g, Japan SLC, Inc., Hamamatsu, Japan) were used for all the in vivo experiments. […] These animals were maintained on a 12/12 h light/dark cycle with constant temperature (23 ± 2°C) under specific pathogen-free conditions. Standard chow diet and water were available ad libitum.
After acclimatization for 1 weeks, animals were randomly divided according to body weight and treated for 3 to 5 consecutive days as follows. The ear and dorsal skin of mouse were intradermally injected with 20 μL (100 μL, dorsal skin) PBS or 500 ng TGF-β in PBS under anaesthesia with 3–4% sevoflurane. Injections were continued in this manner daily for 3 days (days 0, 1 and 2) or 5 days (days 0, 1, 2, 3 and 4). Treatment protocol included the daily topical application of T-3833261 or HF cream on the ear (40 μL/ear) 1 h before injections into the ear. A vehicle without compounds was applied to control mice. The topical material contained sorbitan sesquioleate (50 g), lanolin (50 g), liquid paraffin (250 g), propylene glycol (50 g), 90% lactic acid (1.5 g), T-3833261 (0.1, 0.3 and 1 g) or HF (0.1 g), and distilled water as the rest material. Topical application of compound was continued for 7 days. Mice were euthanized by cervical dislocation under sevoflurane anesthesia at 3 or 5 days after last TGF-β injection and the ear surrounding the TGF-β injection site was harvested with 8 μm biopsy punch under anesthesia.

Compound	IC50 [1]	effect of proline addition on inhibition of α-SMA gene expression [2]	IC50 [3]	Body weight day 0 [4]	Body weight day 7 [4]	body weight of the mice after one week of continuous topical application [4]
Cn1cc(-c2cc(F)cc(CNC(=O)c3nccc4nc(C5CCCC5)[nH]c34)c2)cn1 [T-3833261, 2-Cyclopentyl-N-(3-fluoro-5-(1-methyl-1H-pyrazol-4-yl)benzyl)-3H-imidazo[4,5-c]pyridine-4-carboxamide]	3.6 nM	proline addition did not affect the activity	> 1000 nM			
O=C(CC1NCCCC1O)Cn1cnc2cc(Br)c(Cl)cc2c1=O (centres unmarked) [HF, Halofuginone, reference compound]	8.7 nM	attenuated by adding proline to the medium		22.5 ± 0.3 g	23.7 ± 0.3 g	did not change
